Source: PMC3157365 (Journal of medicinal chemistry, 2008)

Key:
hD2LR = hD2LR (Homo sapiens, UniProt P14416); experiment: Displacement of 125I-IABN in HEK 293 cells transfected with hD2LR; type: binding; settings: for decrease in binding at D2R compared to the piperidinol (unbridged) analogue: comparator from ref 28
hD3R = hD3R (Homo sapiens, UniProt P35462); experiment: Displacement of 125I-IABN in HEK 293 cells transfected with hD3R; type: binding; settings: vs 1
D2R = D2R (Homo sapiens, UniProt P14416); experiment: Functional assay at D2R; type: cell-based
D3R = D3R (Homo sapiens, UniProt P35462); experiment: Functional assay at D3R; type: cell-based
Sequence of D3R (P35462 whole entry): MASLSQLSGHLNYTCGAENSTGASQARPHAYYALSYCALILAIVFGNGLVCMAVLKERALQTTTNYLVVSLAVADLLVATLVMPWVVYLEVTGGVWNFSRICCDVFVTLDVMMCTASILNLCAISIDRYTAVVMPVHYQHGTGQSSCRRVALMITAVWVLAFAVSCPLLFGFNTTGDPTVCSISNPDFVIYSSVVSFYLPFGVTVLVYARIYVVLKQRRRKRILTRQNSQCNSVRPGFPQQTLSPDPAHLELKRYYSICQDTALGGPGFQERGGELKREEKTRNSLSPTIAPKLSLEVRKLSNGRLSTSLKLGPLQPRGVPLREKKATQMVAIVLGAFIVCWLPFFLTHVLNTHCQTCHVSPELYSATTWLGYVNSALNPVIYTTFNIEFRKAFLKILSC

Sequence of hD2LR (P14416 whole entry): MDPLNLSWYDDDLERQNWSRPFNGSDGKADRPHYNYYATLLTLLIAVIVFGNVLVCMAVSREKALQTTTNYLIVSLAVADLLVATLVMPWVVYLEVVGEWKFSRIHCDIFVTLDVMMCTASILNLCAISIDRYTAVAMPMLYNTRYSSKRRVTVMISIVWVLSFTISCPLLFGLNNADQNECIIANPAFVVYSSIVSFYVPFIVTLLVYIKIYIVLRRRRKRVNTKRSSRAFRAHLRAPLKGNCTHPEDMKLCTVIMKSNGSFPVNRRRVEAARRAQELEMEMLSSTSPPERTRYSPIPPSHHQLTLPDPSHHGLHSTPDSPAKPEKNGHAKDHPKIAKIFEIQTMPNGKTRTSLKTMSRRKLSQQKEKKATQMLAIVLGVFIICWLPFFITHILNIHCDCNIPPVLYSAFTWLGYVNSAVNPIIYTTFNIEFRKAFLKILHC
Sequence of D2R (P14416 whole entry): as above
Sequence of hD3R (P35462 whole entry): as the sequence (P35462 whole entry) above

| SMILES | functional efficacy at D2R (D2R) | functional efficacy at D3R (D3R) | decrease in binding at D2R compared to the piperidinol (unbridged) analogue (hD2LR) | further results |
| --- | --- | --- | --- | --- |
| O[C@]1(c2ccc(Cl)cc2)C[C@H]2CC[C@@H](C1)N2Cc1c[nH]c2ccccc12 [Compound 31, endo-8-(1H-Indol-3-ylmethyl)-3-(4-chlorophenyl)-8-azabicyclo-[3.2.1]octan-3-ol] | antagonists | antagonists |  | decrease in affinity at D2R compared to 1 (hD2LR; vs 1): 3 fold; increase in D3R binding affinity compared to the parent ligand 1 (hD3R): 10 fold |
| CSc1ccc([C@]2(O)C[C@H]3CC[C@@H](C2)N3Cc2c[nH]c3ccccc23)cc1 [Compound 37, endo-8-(1H-Indol-3-ylmethyl)-3-(4-(methylthio)phenyl)-8-azabicyclo[3.2.1]octan-3-ol] |  |  | 24 fold |  |
| O[C@@]1(c2ccc(Cl)cc2)C[C@H]2CC[C@@H](C1)N2Cc1csc2ccccc12 [Compound 41, endo-8-(Benzothien-3-ylmethyl)-3-(4-chlorophenyl)-8-azabicyclo[3.2.1]octan-3-ol] | antagonists | antagonists |  |  |
| OC1(c2ccc(Cl)c(Cl)c2)CCN(Cc2c[nH]c3ccccc23)CC1 [Compound 2, reference compound] |  |  |  | selectivity for the D2 receptor subtype (hD2LR; D2R over D3R): more than 10 fold |
| COc1ccc2[nH]cc(CN3[C@@H]4CC[C@H]3C[C@](O)(c3ccc(SC)cc3)C4)c2c1 [Compound 40, endo-8-(5-Methoxy-1H-indol-3-ylmethyl)-3-(4-methylthiophenyl)-8-azabicyclo[3.2.1]octan-3-ol] |  |  | 100 fold |  |
| O[C@@]1(c2ccc(Cl)c(Cl)c2)C[C@H]2CC[C@@H](C1)N2Cc1c[nH]c2ccccc12 [Compound 32, endo-8-(1H-Indol-3-ylmethyl)-3-(3,4-dichlorophenyl)-8-azabicyclo[3.2.1]octan-3-ol] |  | antagonists |  |  |
